Values joined by “and” are separate entries in the source; they are usually repeats but may differ in a detail not shown here. Equal values may be shown once. Where a name gives a salt, the structure may show the parent alone.

For data set [1] the following is noted: 30 (6a); ref 9 (6b); cited from earlier work.
A further data set deals with T1, soluble hCD73 (Homo sapiens, UniProt P21589).
T1 sequence (P21589 27-549 limits assumed): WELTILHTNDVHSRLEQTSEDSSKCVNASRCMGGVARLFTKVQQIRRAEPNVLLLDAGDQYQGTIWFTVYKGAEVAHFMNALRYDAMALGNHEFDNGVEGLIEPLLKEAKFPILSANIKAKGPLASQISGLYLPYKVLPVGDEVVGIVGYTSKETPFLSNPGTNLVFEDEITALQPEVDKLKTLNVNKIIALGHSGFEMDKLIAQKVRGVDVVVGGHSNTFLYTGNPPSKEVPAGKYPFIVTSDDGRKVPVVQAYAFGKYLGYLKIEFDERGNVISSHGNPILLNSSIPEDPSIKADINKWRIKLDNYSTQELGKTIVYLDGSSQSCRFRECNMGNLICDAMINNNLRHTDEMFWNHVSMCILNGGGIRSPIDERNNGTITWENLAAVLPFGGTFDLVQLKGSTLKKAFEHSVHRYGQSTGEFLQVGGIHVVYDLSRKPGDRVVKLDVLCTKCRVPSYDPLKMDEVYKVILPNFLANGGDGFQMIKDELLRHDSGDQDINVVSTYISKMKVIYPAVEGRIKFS
Put plainly: Inhibition of soluble hCD73. Format: biochemical. The conditions noted are these: for fold increase in potency (decrease in Ki) relative to compound 9: versus N^4-benzyloxy compound 9; for fold more potent than 22: versus compound 22.

The target of another data set is σ1 receptor (Homo sapiens, UniProt Q99720). Put plainly: Off-target binding, Psychoactive Drug Screening Program.
σ1 receptor, sequence (Q99720 whole entry, species assumed): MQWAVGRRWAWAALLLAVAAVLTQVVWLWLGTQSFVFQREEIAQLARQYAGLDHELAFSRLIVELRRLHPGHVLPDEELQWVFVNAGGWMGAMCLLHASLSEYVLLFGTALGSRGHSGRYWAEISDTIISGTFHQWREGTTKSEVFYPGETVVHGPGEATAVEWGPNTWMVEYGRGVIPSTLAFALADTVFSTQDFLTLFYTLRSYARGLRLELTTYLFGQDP
Data set [2] concerns the target T2, tonsillar CD73 (human palatine tonsil cryosections) (Homo sapiens, UniProt P21589).
T2 sequence (P21589 27-574): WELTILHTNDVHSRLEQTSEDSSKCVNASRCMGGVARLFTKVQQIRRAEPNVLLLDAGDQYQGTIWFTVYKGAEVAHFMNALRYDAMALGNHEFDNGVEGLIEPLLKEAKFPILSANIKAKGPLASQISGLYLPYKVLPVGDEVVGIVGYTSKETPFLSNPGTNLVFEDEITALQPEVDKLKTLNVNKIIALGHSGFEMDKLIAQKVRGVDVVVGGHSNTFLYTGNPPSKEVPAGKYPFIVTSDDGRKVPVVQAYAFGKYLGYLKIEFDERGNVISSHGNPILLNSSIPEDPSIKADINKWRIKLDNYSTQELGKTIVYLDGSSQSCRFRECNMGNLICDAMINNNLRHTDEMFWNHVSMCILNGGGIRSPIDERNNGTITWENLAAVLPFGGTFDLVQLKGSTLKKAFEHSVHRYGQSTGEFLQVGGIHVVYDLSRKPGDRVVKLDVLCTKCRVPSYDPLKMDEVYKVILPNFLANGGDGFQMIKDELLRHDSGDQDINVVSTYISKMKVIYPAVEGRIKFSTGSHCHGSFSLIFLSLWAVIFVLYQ
Put plainly: In situ ecto-5′-nucleotidase. Format: biochemical. Conditions: 50–250 nM inhibitor; 100 μM AMP; tonsillar germinal centers.

The next data set has as its target rat soluble CD73. The conditions noted are these: read-out: Ki ± SEM; cited from earlier work.

Regarding `C[C@H](Nc1cc(Cl)nc2c1cnn2[C@@H]1O[C@H](COP(=O)(O)CP(=O)(O)O)[C@@H](O)[C@H]1O)c1ccccc1F` [Compound 6a, Quemliclustat], in data set [1], the oral bioavailability entry was “display oral bioavailability”. Turning to `COC[C@](CO)(OC[C@H]1O[C@@H](n2ncc3c(NC4CCCC4)nc(Cl)nc32)[C@H](O)[C@@H]1O)P(=O)(O)O` [Compound 6b, OP-5244], the oral bioavailability result in data set [1] is reported as “display oral bioavailability”. Take `CCN(CC)CC.CCN(CC)CC.Cn1c(=O)n([C@@H]2O[C@H](COP(=O)(O)CP(=O)(O)O)[C@@H](O)[C@H]2O)cc/c1=N/OCc1ccccc1Cl` [Compound 10, N^4-(2-Chlorobenzyloxy)-3-methylcytidine-5′-α,β-methylenediphosphonate Triethylammonium Salt]: on soluble hCD73 (soluble hCD73), the “fold increase in potency (decrease in Ki) relative to compound 9” value was 6–7 fold. The same measure, in the same setting: to `CCN(CC)CC.CCN(CC)CC.Cn1c(=O)n([C@@H]2O[C@H](COP(=O)(O)CP(=O)(O)O)[C@@H](O)[C@H]2O)cc/c1=N/OCc1cccc(Cl)c1` [Compound 11, N^4-(3-Chlorobenzyloxy)-3-methylcytidine-5′-α,β-methylenediphosphonate Triethylammonium Salt] belongs 6–7 fold.

In the case of `Cn1c(=O)n([C@@H]2O[C@H](COP(=O)(O)CP(=O)(O)O)[C@@H](O)[C@H]2O)cc/c1=N/OCc1ccc(Cl)cc1` [Compound 16, N^4-(4-Chlorobenzyloxy)-3-methylcytidine-5′-α,β-methylenediphosphonate Triethylammonium Salt], the Ki at σ1 receptor is 2610 ± 640 nM.

Consider `CCN(CC)CC.CCN(CC)CC.Cn1c(=O)n([C@@H]2O[C@H](COP(=O)(O)CP(=O)(O)O)[C@@H](O)[C@H]2O)cc/c1=N/OCc1ccc(I)cc1` [Compound 18, N^4-(4-Iodobenzyloxy)-3-methylcytidine-5′-α,β-methylenediphosphonate Triethylammonium Salt], for which the “effect on catalytic (AMPase) activity of tonsillar CD73 in situ” value in data set [2] was “decreased the catalytic activities”. The “fold increase in potency (decrease in Ki) relative to compound 9” value at soluble hCD73 (soluble hCD73) was ~ 20 fold and 24 fold. Turning to `CCN(CC)CC.CCN(CC)CC.Cn1c(=O)n([C@@H]2O[C@H](COP(=O)(O)CP(=O)(O)O)[C@@H](O)[C@H]2O)cc/c1=N/OCc1ccc(S(F)(F)(F)(F)F)cc1` [Compound 20, N^4-[4-(Pentafluorosulfanyl)benzyloxy]-3-methylcytidine-5′-α,β-methylenediphosphonate Triethylammonium Salt], the “effect on catalytic (AMPase) activity of tonsillar CD73 in situ” value in data set [2] was “decreased the catalytic activities”.

With `CCN(CC)CC.CCN(CC)CC.Cn1c(=O)n([C@@H]2O[C@H](COP(=O)(O)CP(=O)(O)O)[C@@H](O)[C@H]2O)cc/c1=N/OCc1ccc(C(N)=O)cc1` [Compound 23, N^4-[4-(Carbamoyl)benzyloxy]-3-methylcytidine-5′-α,β-methylenediphosphate Triethylammonium Salt], the “fold weaker than methyl ester 21” value at soluble hCD73 (soluble hCD73, versus compound 21) is on record as 2 fold. On to `CCN(CC)CC.CCN(CC)CC.CCOC(=O)CCNC(=O)c1ccc(CO/N=c2/ccn([C@@H]3O[C@H](COP(=O)(O)CP(=O)(O)O)[C@@H](O)[C@H]3O)c(=O)n2C)cc1` [Compound 26, N^4-{4-[(3-Ethoxy-3-oxopropyl)carbamoyl]benzyloxy}-3-methylcytidine-5′-α,β-methylenediphosphonate Triethylammonium Salt], for which the “fold more potent than 22” value at soluble hCD73 (soluble hCD73) is recorded as 5 fold. Regarding `CCN(CC)CC.CCN(CC)CC.Cn1c(=O)n([C@@H]2O[C@H](COP(=O)(O)CP(=O)(O)O)[C@@H](O)[C@H]2O)cc/c1=N/OCc1ccc(C(=O)NCCC(=O)O)cc1` [Compound 27, N^4-{4-[(2-Carboxyethyl)carbamoyl]benzyloxy}-3-methylcytidine-5′-α,β-methylenediphosphonate Triethylammonium Salt], at soluble hCD73 (soluble hCD73), the “fold more potent than 22” value is listed as 5 fold. `CCN(CC)CC.CCN(CC)CC.O=c1ccn([C@H]2[C@H](O)[C@H](O)[C@]3(COP(=O)(O)CP(=O)(O)O)C[C@H]23)c(=O)[nH]1` [Compound 28, {[({(2R,3S,4R,5S)-4-[2,4-Dioxo-3,4-dihydropyrimidin-1(2H)-yl]-2,3-dihydroxy-1λ^5-bicyclo[3.1.0]hexan-1-yl}methoxy)(hydroxy)phosphoryl]methyl}phosphonic Acid Triethylammonium Salt] showed an inhibition at 50 µM at soluble hCD73 of 28%. For the same compound, on soluble hCD73 (soluble hCD73, between 0.03 nM and 50 μM), the “% inhibition” value is recorded as below 50%. As to `CCN(CC)CC.CCN(CC)CC.Cn1c(=O)n([C@H]2[C@H](O)[C@H](O)[C@]3(COP(=O)(O)CP(=O)(O)O)C[C@H]23)cc/c1=N/OCc1ccc(Cl)cc1` [Compound 29, [({[(2R,3S,4R,5S)-4-(4-{[(4-Chlorobenzyl)oxy]imino}-3-methyl-2-oxo-3,4-dihydropyrimidin-1(2H)-yl)-2,3-dihydroxy-1λ^5-bicyclo[3.1.0]hexan-1-yl]methoxy}(hydroxy)phosphoryl)methyl]phosphonic Acid Triethylammonium Salt], the “fold weaker inhibitor than ribose analogue 16” value on soluble hCD73 (soluble hCD73, versus compound 16) was 88 fold and ~ 90 fold. Turning to “N^4-benzyloxy-3-methylcytidine-5′-α,β-methylene-diphosphonate [Compound 9]”, the inhibition constant Ki on rat soluble CD73 is 3.67 nM.

Values taken from article PMC8865918 (Journal of medicinal chemistry, 2022).
